Laboratory results from the NIST ThermoML archive (doi:10.1021/je301123j).

How the values were obtained:
[1] = for surface tension liquid-gas: Ring tensiometer; for mass density / speed of sound / viscosity: 100 kPa, Liquid
[2] = xn = mol fraction of the nth substance listed; conditions: x2 = 0; for surface tension liquid-gas: Ring tensiometer; for mass density / speed of sound / viscosity: 100 kPa, Liquid

OCCN(CCO)CCO [triethanolamine]
[1]
Conditions | mass density [kg/m3] | speed of sound [m/s] | surface tension liquid-gas [mN/m] | viscosity [mPa·s]
293.15 K | 1123.51 | 1626.9 | 46.3 | 951.79
303.15 K | 1118 | 1605.3 | 45.6 | 413.68
313.15 K | 1112.34 | 1587.8 | 44.8 | 204.57
323.15 K | 1106.7 | 1571.9 | – | 111.34

OCCNCCO [diethanolamine] + CCN1CCCC1=O
[2]
Conditions | mass density [kg/m3] | speed of sound [m/s] | surface tension liquid-gas [mN/m] | viscosity [mPa·s]
293.15 K | 1096.45 | 1739.2 | 47.4 | 892.04
303.15 K | 1090.02 | 1711.3 | 46.6 | 394.2
313.15 K | 1083.51 | 1685.9 | 46 | 191.32
323.15 K | 1077.05 | 1661.1 | – | 102.72

OCCNCCO [diethanolamine]
[1]
Conditions | mass density [kg/m3] | speed of sound [m/s] | surface tension liquid-gas [mN/m] | viscosity [mPa·s]
293.15 K | 1096.45 | 1739.2 | 47.4 | 892.04
303.15 K | 1090.02 | 1711.3 | 46.6 | 394.2
313.15 K | 1083.51 | 1685.9 | 46 | 191.32
323.15 K | 1077.05 | 1661.1 | – | 102.72

NCCO [2-aminoethan-1-ol] + CCN1CCCC1=O
[2]
Conditions | mass density [kg/m3] | speed of sound [m/s] | surface tension liquid-gas [mN/m] | viscosity [mPa·s]
293.15 K | 1015.93 | 1734.4 | 49.7 | 24.23
303.15 K | 1008.02 | 1702.1 | 47.8 | 14.99
313.15 K | 1000.06 | 1670.1 | 47.1 | 9.776
323.15 K | 992.05 | 1637.2 | – | 6.765

OCCN(CCO)CCO [triethanolamine] + CCN1CCCC1=O
[2]
Conditions | mass density [kg/m3] | speed of sound [m/s] | surface tension liquid-gas [mN/m] | viscosity [mPa·s]
293.15 K | 1123.51 | 1626.9 | 46.3 | 951.79
303.15 K | 1118 | 1605.3 | 45.6 | 413.68
313.15 K | 1112.34 | 1587.8 | 44.8 | 204.57
323.15 K | 1106.7 | 1571.9 | – | 111.34

NCCO [2-aminoethan-1-ol]
[1]
Conditions | mass density [kg/m3] | speed of sound [m/s] | surface tension liquid-gas [mN/m] | viscosity [mPa·s]
293.15 K | 1015.93 | 1734.4 | 49.7 | 24.23
303.15 K | 1008.02 | 1702.1 | 47.8 | 14.99
313.15 K | 1000.06 | 1670.1 | 47.1 | 9.776
323.15 K | 992.05 | 1637.2 | – | 6.765

CCN1CCCC1=O [1-ethyl-2-pyrrolidinone]
[1]
Conditions | mass density [kg/m3] | speed of sound [m/s] | surface tension liquid-gas [mN/m] | viscosity [mPa·s]
293.15 K | 997.91 | 1513.2 | 36.5 | 2.132
303.15 K | 989.34 | 1475 | 35.2 | 1.777
313.15 K | 980.76 | 1437.6 | 34.2 | 1.515
323.15 K | 972.16 | 1400.6 | – | 1.31
